Tests used:
Insulin receptor = Insulin receptor (Rattus norvegicus, UniProt P15127); format: cell membranes, Wistar, Liver, Membrane
Glucocorticoid receptor = molecular target: T1, Glucocorticoid receptor (Homo sapiens, UniProt P04150); conditions: hela s3
T1 sequence (P04150 whole entry): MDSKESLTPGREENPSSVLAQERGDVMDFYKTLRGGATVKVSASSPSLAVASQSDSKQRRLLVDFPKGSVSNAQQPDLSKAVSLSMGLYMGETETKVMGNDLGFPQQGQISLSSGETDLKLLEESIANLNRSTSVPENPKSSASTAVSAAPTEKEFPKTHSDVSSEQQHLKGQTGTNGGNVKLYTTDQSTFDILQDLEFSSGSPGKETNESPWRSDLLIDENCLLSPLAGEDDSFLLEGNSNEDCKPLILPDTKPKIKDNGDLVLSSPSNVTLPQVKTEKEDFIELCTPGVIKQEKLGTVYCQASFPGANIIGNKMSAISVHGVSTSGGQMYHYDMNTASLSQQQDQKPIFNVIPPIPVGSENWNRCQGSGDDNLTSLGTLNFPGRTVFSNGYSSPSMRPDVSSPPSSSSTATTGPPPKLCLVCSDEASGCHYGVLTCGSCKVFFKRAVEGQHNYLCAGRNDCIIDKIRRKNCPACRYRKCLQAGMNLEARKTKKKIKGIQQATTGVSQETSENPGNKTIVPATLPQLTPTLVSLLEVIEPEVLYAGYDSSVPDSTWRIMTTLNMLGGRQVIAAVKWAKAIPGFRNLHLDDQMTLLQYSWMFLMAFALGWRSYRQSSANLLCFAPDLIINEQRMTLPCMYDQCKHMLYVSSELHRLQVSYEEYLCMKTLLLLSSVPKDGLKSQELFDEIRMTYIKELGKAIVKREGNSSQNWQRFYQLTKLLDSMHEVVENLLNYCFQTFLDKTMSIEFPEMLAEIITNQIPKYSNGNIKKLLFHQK

[1] = molecular target: 5-hydroxytryptamine receptor 6 (Homo sapiens, UniProt P50406); format: cell membranes, HeLa, Membrane
5-hydroxytryptamine receptor 6, sequence (P50406 whole entry): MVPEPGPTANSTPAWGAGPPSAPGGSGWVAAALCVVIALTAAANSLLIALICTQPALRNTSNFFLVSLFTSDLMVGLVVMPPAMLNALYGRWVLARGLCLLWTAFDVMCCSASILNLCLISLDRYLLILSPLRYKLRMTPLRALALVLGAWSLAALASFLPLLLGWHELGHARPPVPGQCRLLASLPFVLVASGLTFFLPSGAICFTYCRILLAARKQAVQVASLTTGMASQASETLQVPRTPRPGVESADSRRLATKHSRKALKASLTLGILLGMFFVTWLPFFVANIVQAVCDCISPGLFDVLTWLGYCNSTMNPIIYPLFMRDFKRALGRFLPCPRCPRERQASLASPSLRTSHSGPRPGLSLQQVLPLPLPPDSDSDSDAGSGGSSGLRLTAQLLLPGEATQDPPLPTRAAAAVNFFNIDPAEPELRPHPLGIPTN

[2] = molecular target: T2, Cholecystokinin receptor type A (Homo sapiens, UniProt P32238); format: cell membranes, Membrane; conditions: 1321-n1
T2 sequence (P32238 whole entry): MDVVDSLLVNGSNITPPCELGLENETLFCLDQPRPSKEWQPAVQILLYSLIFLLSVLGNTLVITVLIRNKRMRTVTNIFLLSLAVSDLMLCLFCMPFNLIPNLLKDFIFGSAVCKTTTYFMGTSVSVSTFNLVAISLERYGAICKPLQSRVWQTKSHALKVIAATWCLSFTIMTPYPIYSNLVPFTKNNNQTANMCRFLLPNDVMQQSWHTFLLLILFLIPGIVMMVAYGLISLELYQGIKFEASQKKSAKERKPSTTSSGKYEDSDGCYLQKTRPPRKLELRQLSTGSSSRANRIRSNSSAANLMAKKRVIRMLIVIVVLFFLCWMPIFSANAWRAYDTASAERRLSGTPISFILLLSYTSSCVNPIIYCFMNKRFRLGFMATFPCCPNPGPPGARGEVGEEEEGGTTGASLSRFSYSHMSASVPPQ

Neutrophil elastase = molecular target: T3, Neutrophil elastase (Homo sapiens, UniProt P08246); format: tissue-based;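 further: inhibition of neutrophil elastase enzyme activity, measured with a p-nitroanilide-linked peptide substrate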
T3 sequence (P08246 whole entry): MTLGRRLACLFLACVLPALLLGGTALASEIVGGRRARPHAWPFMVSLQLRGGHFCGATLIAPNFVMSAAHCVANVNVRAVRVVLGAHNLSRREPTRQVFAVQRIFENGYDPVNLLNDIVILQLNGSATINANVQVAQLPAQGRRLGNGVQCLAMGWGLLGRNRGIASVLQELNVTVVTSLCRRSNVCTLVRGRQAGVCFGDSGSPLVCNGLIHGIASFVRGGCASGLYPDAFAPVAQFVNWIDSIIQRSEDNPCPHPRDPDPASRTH

[3] = molecular target: Mitogen-activated protein kinase 14 (Homo sapiens, UniProt Q16539); design: species or system Escherichia coli;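 further: inhibition of p38alpha enzyme activity in a biochemical kinase assay, with myelin basic protein serving as substrate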
Mitogen-activated protein kinase 14, sequence (Q16539 whole entry): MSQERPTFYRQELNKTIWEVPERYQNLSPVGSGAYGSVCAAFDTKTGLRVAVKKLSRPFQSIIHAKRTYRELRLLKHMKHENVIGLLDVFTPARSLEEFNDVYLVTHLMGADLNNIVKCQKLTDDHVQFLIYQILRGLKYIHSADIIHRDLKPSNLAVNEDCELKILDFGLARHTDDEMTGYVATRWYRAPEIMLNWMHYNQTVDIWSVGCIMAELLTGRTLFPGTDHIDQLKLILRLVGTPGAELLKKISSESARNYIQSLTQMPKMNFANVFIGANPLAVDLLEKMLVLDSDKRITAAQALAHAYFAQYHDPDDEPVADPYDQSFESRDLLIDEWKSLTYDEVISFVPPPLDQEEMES

[4] = molecular target: C-C chemokine receptor type 2 (Homo sapiens, UniProt P41597); format: cell membranes, Membrane; conditions: cho-k1
C-C chemokine receptor type 2, sequence (P41597 whole entry): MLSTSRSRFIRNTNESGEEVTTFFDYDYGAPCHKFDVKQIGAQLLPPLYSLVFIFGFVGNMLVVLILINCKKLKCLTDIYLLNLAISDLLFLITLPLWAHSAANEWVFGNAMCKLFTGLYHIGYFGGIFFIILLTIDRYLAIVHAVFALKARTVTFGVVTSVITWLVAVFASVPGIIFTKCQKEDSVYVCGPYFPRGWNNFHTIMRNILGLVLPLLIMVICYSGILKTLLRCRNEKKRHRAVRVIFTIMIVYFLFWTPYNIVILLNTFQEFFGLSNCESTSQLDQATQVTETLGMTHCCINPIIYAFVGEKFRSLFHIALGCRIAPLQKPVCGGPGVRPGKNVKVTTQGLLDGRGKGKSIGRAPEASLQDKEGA

[5] = molecular target: Prostaglandin G/H synthase 1 (Homo sapiens, UniProt P23219); assay: biochemical; format: tissue-based, Platelet; conditions: platelet;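 further: inhibition of COX-1 enzyme activity, with arachidonic acid supplied as substrate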
Prostaglandin G/H synthase 1, sequence (P23219 whole entry): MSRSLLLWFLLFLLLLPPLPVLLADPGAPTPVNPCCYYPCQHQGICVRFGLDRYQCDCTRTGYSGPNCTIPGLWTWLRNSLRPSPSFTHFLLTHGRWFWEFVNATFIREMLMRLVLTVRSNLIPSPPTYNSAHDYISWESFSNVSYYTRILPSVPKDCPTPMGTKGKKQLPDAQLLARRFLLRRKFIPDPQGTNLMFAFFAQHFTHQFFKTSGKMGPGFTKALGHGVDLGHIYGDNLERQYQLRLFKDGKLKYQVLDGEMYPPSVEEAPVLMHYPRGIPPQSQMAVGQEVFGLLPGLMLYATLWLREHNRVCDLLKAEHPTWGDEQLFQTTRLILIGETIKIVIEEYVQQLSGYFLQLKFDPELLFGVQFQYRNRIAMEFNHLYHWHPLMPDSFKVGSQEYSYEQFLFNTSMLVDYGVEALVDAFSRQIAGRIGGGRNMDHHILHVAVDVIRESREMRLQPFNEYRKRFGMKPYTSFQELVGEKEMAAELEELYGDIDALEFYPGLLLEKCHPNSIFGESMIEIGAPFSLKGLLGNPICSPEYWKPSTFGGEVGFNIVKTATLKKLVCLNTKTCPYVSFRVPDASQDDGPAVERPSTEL
Further: in other assays of this panel Not Active means under 50% inhibition at 10 µM.

Insulin receptor, sequence (P15127 27-759 limits assumed): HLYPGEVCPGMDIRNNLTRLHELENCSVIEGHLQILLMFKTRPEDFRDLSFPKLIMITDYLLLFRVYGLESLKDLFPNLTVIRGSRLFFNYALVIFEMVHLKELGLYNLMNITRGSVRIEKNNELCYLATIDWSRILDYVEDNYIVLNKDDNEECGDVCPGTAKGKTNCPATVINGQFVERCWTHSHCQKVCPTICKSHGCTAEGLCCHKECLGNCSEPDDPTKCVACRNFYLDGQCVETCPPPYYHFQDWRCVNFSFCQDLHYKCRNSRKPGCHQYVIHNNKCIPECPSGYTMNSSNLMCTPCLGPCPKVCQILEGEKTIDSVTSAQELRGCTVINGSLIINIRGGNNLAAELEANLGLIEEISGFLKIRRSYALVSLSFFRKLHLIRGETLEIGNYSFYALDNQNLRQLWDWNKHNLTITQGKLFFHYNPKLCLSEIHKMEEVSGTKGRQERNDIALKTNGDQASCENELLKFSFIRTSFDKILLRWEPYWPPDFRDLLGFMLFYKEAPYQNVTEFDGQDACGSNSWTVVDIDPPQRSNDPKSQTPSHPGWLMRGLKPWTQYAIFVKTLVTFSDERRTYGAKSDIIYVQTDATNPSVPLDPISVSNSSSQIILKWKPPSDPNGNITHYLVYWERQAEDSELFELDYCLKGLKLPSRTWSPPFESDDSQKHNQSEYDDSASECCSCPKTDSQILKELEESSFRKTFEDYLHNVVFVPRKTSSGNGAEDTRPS
Insulin receptor, sequence (P15127 764-1383 limits assumed): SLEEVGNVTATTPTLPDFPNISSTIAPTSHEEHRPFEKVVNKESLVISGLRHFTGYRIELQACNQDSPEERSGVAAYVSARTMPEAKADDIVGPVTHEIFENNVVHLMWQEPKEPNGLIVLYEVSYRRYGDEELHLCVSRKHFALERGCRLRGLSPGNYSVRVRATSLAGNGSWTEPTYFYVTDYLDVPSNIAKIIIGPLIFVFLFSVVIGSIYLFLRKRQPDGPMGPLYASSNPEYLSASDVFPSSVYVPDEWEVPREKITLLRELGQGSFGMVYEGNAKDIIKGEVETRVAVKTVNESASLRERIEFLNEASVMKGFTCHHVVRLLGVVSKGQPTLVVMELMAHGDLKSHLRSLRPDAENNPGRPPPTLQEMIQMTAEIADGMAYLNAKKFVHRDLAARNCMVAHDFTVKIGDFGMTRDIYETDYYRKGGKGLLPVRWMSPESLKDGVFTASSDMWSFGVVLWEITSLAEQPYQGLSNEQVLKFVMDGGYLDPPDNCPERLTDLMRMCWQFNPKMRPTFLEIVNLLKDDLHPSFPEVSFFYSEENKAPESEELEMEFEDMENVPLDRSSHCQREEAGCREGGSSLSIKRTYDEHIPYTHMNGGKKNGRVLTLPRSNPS

SMILES	IC50 (Insulin receptor)	IC50 (Glucocorticoid receptor)	IC50 ([1]; hela)	IC50 [2]	IC50 (Neutrophil elastase)	IC50 [3]	IC50 [4]	IC50 [5]	IC50 ([1]; read-out: IC50) [nM]
CC[C@H]1[C@@H]2C[C@H]3[C@@H]4N(C)c5ccccc5[C@]45C[C@@H]([C@@H]2[C@H]5O)N3[C@@H]1O [AJMALINE]	Not Active	Not Active	Not Active	Not Active	Not Active	Not Active	Not Active	Not Active	
NC12CC3CC(CC(C3)C1)C2 [AMANTADINE]	Not Active	Not Active	Not Active	Not Active	Not Active	Not Active	Not Active	Not Active	
NCCCNCCSP(=O)(O)O [AMIFOSTINE]	Not Active	Not Active	Not Active	Not Active	Not Active	Not Active	Not Active	Not Active	
CN(C)CCC=C1c2ccccc2CCc2ccccc21 [AMITRIPTYLINE]	Not Active	Not Active		Not Active	Not Active	Not Active	Not Active	Not Active	140
CC(C)c1c(C(=O)Nc2ccccc2)c(-c2ccccc2)c(-c2ccc(F)cc2)n1CC[C@@H](O)C[C@@H](O)CC(=O)O [ATORVASTATIN]	Not Active	Not Active	Not Active	Not Active	Not Active	Not Active	Not Active	Not Active	
CC(=O)OC[C@H]1O[C@@H](n2ncc(=O)[nH]c2=O)[C@H](OC(C)=O)[C@@H]1OC(C)=O [AZARIBINE]	Not Active	Not Active	Not Active	Not Active	Not Active	Not Active	Not Active	Not Active	
C[C@H]1[C@H](NC(=O)/C(=N\OC(C)(C)C(=O)O)c2csc(N)n2)C(=O)N1S(=O)(=O)O [AZTREONAM]	Not Active	Not Active	Not Active	Not Active	Not Active	Not Active	Not Active	Not Active	
O=C(O)CCNC(=O)c1ccc(/N=N/c2ccc(O)c(C(=O)O)c2)cc1 [BALSALAZIDE]	Not Active	Not Active	Not Active	Not Active	Not Active	Not Active	Not Active	Not Active	
COc1cc(OC)c(C(=O)CCCN2CCCC2)c(OC)c1 [BUFLOMEDIL]	Not Active	Not Active	Not Active	Not Active	Not Active	Not Active	Not Active	Not Active	
Cn1c(=O)c2c(ncn2C)n(C)c1=O [CAFFEINE]	Not Active	Not Active	Not Active	Not Active	Not Active	Not Active	Not Active	Not Active	
CO/N=C(\C(=O)N[C@@H]1C(=O)N2C(C(=O)O)=C(COC(C)=O)CS[C@H]12)c1csc(N)n1 [CEFOTAXIME]	Not Active	Not Active	Not Active	Not Active	Not Active	Not Active	Not Active	Not Active	
CNC1=Nc2ccc(Cl)cc2C(c2ccccc2)=[N+]([O-])C1 [CHLORDIAZEPOXIDE]	Not Active	Not Active	Not Active	Not Active	Not Active	Not Active	Not Active	Not Active	

Reference: ChEMBL document CHEMBL1909046, “DrugMatrix in vitro pharmacology data”
